Test results as given in patent US8586707B2, “Stapled peptides and method of synthesis” (The Research Foundation of State University of New York, priority 2008, dated 2013).
Read-outs that look alike come from different tables or passages of the source. *1 amine or outer side, *2 acyl side, *3 side chain or, on linkers, in order; H or OH if unused. Where a SMILES comes first, the peptide text is derived from it. Bridges are numbered along the chain shown (N, C = ends). [ ]: non-standard residue; d: D form. The star is where a group is joined. X1 = CN(C)c1ccc(N2N=C(C(=O)[*:2])CC2(C)C(=O)[*:1])cc1; X5 = COc1ccc(N2N=C(C(=O)[*:2])CC2(C)C(=O)[*:1])cc1; X3 = COc1ccc(N2N=C(C(=O)[*:2])CC2C(=O)[*:1])cc1; X4 = CC1(C(=O)[*:1])CC(C(=O)[*:2])=NN1c1ccccc1; X2 = COc1ccc(N2N=C(C(=O)*)CC2C(N)=O)cc1; Aib = CC(C)(N)C(=O)O

Legend:
[1] = Far-UV circular dichroism, percent helicity; assay type: physicochemical; conditions: CD in trifluoroethanol at 25 °C, from mean residue ellipticity at 208 nm
Description: (§1) To examine the stapling effect on peptide secondary structure, we measured the far-UV circular dichroism (CD) spectra of the stapled peptides in trifluoroethanol (TFE) at 25° C. Because the tetrazoles in the linear peptides are labile to the CD scanning light (short wavelength UV light), we prepared a photo stable control peptide, Ac-Val-Lys(Ac)-Leu-Aib-Val-Lys(Ac)-Leu-NH2 (SEQ ID NO:1) (17; Ac=acetyl; Aib=amino isobutyric acid) as a linear surrogate. […] The percent helicity of 17 was determined to be 53% on the basis of mean residue ellipticity (MRE) at 208 nm. […] To further characterize the stability derived from the stapling, we measured thermal melting point (Tm) of the most helical peptide 16 by following its ellipticity over a wide temperature range (20-85° C.), and compared it to that of the linear photo stable peptide 17 (FIG. 5 (b)).
Circular Dichroism: CD spectra were obtained using 1-mm pathlength cuvettes on a JASCO J-715 instrument at 25° C. The instrument scan range was set at 190 to 250 nm. The scan rate was set at 50 nm/min, the response time was set at 2 sec, and the bandwidth was set at 1 nm. The spectra were the averages of two scans. For the measurement of percent helicity, peptides were dissolved in 100% trifluoroethanol (TFE); for the Tm determination, 20% TFE/H2O were used as the solvent. The percent helicity was calculated by using the following equation: […]

[2] = the molecule shown is the open-chain precursor, other bond, hv 302 nm (tetrazole-alkene photocycloaddition)
[3] = Thermal melting point by CD ellipticity over 20-85 °C; assay type: physicochemical; conditions: for melting temperature (Tm): 100 μM peptide in 20% TFE/H2O, 20-85 °C
Description: as §1
Circular Dichroism: CD spectra were obtained using 1-mm pathlength cuvettes on a JASCO J-715 instrument at 25° C. The instrument scan range was set at 190 to 250 nm. The scan rate was set at 50 nm/min, the response time was set at 2 sec, and the bandwidth was set at 1 nm. The spectra were the averages of two scans. For the measurement of percent helicity, peptides were dissolved in 100% trifluoroethanol (TFE); for the Tm determination, 20% TFE/H2O were used as the solvent. The percent helicity was calculated by using the following equation:
[formula] The melting temperature (Tm) was determined by following a reported procedure. Briefly, a sample of 100 μM peptide in 20% TFE/H2O in an 1-mm pathlength cuvette was scanned at various temperatures from 20° C. to 85° C. (5-degree intervals) with an equilibration time of 3 min and a heating rate of 60° C./hr. The θ222 MRE data was normalized by setting the maximum θ222 MRE to 100% and the minimum θ222 MRE to 0.

HeLa cells = test: Cellular uptake study by fluorescent microscopy; assay type: cell-based; conditions: 100 μM peptide, 4 hours, 37 °C, DAPI filter
Description: To assess whether the stapled peptides are capable of penetrating cell membrane, we took advantage of the intrinsic fluorescence of the pyrazoline cross-linkers and monitored the stapled peptide cellular uptake by fluorescent microscopy. […] After incubating HeLa cells with 100 μM of peptide 13 for 4 hours in a 37° C. CO2 incubator, the cells were washed twice with PBS before fixing with 4% paraformaldehyde and the subcellular distribution of peptide 13 was examined by fluorescent microscopy.
Cellular Uptake Study: HeLa cells cultured on cover slips were treated with 100 μM of peptide 13 or control peptide 18 in 2% DMSO serum-free DMEM medium for 4 hr in a 37° C., 5% CO2 incubator. In preparation for fixation, medium was aspirated and the cells were washed twice with PBS. The cover slips were treated to a freshly prepared 4% paraformaldehyde/PBS solution for 10˜15 min, washed twice with PBS, and quenched with 50 mM NH4Cl for 10 minutes. After washing with PBS twice, the cover-slip was flipped and placed on top of microscopy glass containing in situ-frame and PBS buffer to make a sealed sample chamber. The images were acquired on a Zeiss Axioimager motorized fluorescence microscope. DAPI filter (ex 365 nm, em 445±25 nm) was used in acquiring fluorescence images. All image acquisitions and processing were performed under identical conditions.

[4] = the molecule shown is the open-chain precursor, other bond, 28-membered ring, hv 302 nm, 10 min, 0.15 mM
[5] = 28-membered ring, MeCN, 0.15 mM

Question: With `CC(=O)N[C@H](C(=O)N[C@H]1CCCCNC(=O)C2(C)CC(=NN2c2ccccc2)C(=O)NCCCC[C@@H](C(=O)N[C@@H](CC(C)C)C(N)=O)NC(=O)[C@H](C(C)C)NC(=O)C(C)(C)NC(=O)[C@H](CC(C)C)NC1=O)C(C)C` (some centres unmarked) [Peptide 11] (Ac-VKL[Aib]VKL-NH2; linker 2-6 via X4) as the compound, how does the percent helicity [1] read?
Answer: 51%

Question: For “Ac-Val-Lys(methacryloyl)-Leu-Aib-Val-Lys(2-phenyl-2H-tetrazole-5-carbonyl)-Leu-NH2?”, which ring closure, yield after HPLC [2, 5] is on record?
Answer: 41%

Question: Which ring closure, yield after HPLC ([2]; 32-membered ring, MeCN, 0.15 mM) does the source give for “Ac-Val-Lys(methacryloyl)-Leu-Aib-Val-Lys(4-(2-phenyl-2H-tetrazol-5-yl)benzoyl)-Leu-NH2?” here?
Answer: 38%

Question: Which percent helicity [1] does the source give for `CC(=O)NCCCC[C@H](NC(=O)[C@@H](NC(C)=O)C(C)C)C(=O)N[C@@H](CC(C)C)C(=O)NC(C)(C)C(=O)N[C@H](C(=O)N[C@@H](CCCCNC(C)=O)C(=O)N[C@@H](CC(C)C)C(N)=O)C(C)C` [Peptide 17, Ac-Val-Lys(Ac)-Leu-Aib-Val-Lys(Ac)-Leu-NH2, reference compound] (Ac-VK(Ac)L[Aib]VK(Ac)L-NH2) here?
Answer: 53%

Question: And the “melting temperature (Tm)” value [3]?
Answer: 48 °C

Question: For “Ac-Val-Orn(methacryloyl)-Leu-Aib-Val-Orn(4-(2-phenyl-2H-tetrazol-5-yl)benzoyl)-Leu-NH2?”, which ring closure, yield after HPLC ([2]; 30-membered ring, MeCN, 0.15 mM) is on record?
Answer: 15%

Question: Which ring closure, yield after HPLC [2, 5] does the source give for “Ac-Val-Lys(methacryloyl)-Leu-Aib-Val-Lys(2-(4-methoxyphenyl)-2H-tetrazole-5-carbonyl)-Leu-NH2?” here?
Answer: 53%

Question: With `CC(=O)N[C@H](C(=O)N[C@H]1CCCCNC(=O)C2(C)CC(=NN2c2ccc(N(C)C)cc2)C(=O)NCCCC[C@@H](C(=O)N[C@@H](CC(C)C)C(N)=O)NC(=O)[C@H](C(C)C)NC(=O)C(C)(C)NC(=O)[C@H](CC(C)C)NC1=O)C(C)C` (some centres unmarked) [Peptide 16] (Ac-VKL[Aib]VKL-NH2; linker 2-6 via X1) as the compound, how does the percent helicity [1] read?
Answer: 64%

Question: And the “melting temperature (Tm)” value [3]?
Answer: 63 °C

Question: What about the “increase in Tm versus linear peptide 17” value ([3]; stapled 16 vs linear 17) of the same compound?
Answer: 15 °C

Question: For “Ac-Val-Lys(acryloyl)-Leu-Aib-Val-Lys(2-(4-dimethylaminophenyl)-2H-tetrazole-5-carbonyl)-Leu-NH2?”, which ring closure, yield after HPLC [2, 5] is on record?
Answer: 64%

Question: For “Ac-Leu-Thr-Phe-Lys(methacryloyl)-His-Tyr-Trp-Ala-Gln-Leu-Lys(N-(4-methoxy)phenyl-tetrazole)-Ser-NH2”, which ring closure, yield after HPLC [2] is on record?
Answer: 74%

Question: For `COc1ccc(N2N=C3CC2C(=O)NCCCC[C@H](NC(=O)[C@@H](NC(C)=O)C(C)C)C(=O)N[C@@H](CC(C)C)C(=O)NC(C)(C)C(=O)N[C@@H](C(C)C)C(=O)N[C@H](C(=O)N[C@@H](CC(C)C)C(N)=O)CCCCNC3=O)cc1` (some centres unmarked) [Peptide 13] (Ac-VKL[Aib]VKL-NH2; linker 2-6 via X3), which “cellular uptake (intracellular fluorescence)” value (HeLa cells) is on record?
Answer: punctuated fluorescence was observed in discrete cytoplasmic regions within HeLa cells

Question: For “Ac-Val-Orn(methacryloyl)-Leu-Aib-Val-Orn(2-phenyl-2H-tetrazole-5-carbonyl)-Leu-NH2?”, which ring closure, yield after HPLC ([2]; 26-membered ring, MeCN, 0.15 mM) is on record?
Answer: 15%

Question: For `COc1ccc(N2N=C3CC2(C)C(=O)NCCCC[C@H](NC(=O)[C@@H](NC(C)=O)C(C)C)C(=O)N[C@@H](CC(C)C)C(=O)NC(C)(C)C(=O)N[C@@H](C(C)C)C(=O)N[C@H](C(=O)N[C@@H](CC(C)C)C(N)=O)CCCCNC3=O)cc1` (some centres unmarked) [Peptide 14] (Ac-VKL[Aib]VKL-NH2; linker 2-6 via X5), which percent helicity [1] is on record?
Answer: 51%

Question: Which ring closure, yield after HPLC [2, 5] does the source give for “Ac-Val-Lys(acryloyl)-Leu-Aib-Val-Lys(2-(4-methoxyphenyl)-2H-tetrazole-5-carbonyl)-Leu-NH2?” here?
Answer: 64%

Question: With “Ac-Val-Lys(methacryloyl)-Leu-Aib-Val-Lys(2-(4-dimethylaminophenyl)-2H-tetrazole-5-carbonyl)-Leu-NH2?” as the compound, how does the ring closure, conversion ([4]; DCM) read?
Answer: 43%

Question: What about the ring closure, conversion ([4]; EtOAc) of the same compound?
Answer: 86%

Question: What about the ring closure, conversion ([4]; EtOH) of the same compound?
Answer: 92%

Question: What about the ring closure, conversion ([4]; MeCN) of the same compound?
Answer: 87%

Question: And the ring closure, conversion ([4]; iPrOH)?
Answer: 88%

Question: And the ring closure, yield after HPLC [2, 5]?
Answer: 94%

Question: With `COc1ccc(N2N=C(C(=O)NCCCC[C@H](NC(=O)[C@@H](NC(=O)C(C)(C)NC(=O)[C@H](CC(C)C)NC(=O)[C@H](CCCCNC(C)=O)NC(=O)[C@@H](NC(C)=O)C(C)C)C(C)C)C(=O)N[C@@H](CC(C)C)C(N)=O)CC2C(N)=O)cc1` (stereo partly drawn) [Peptide 18, Ac-Val-Lys(Pyr)-Leu-Aib-Val-Lys(Ac)-Leu-NH2, reference compound] (Ac-VK(Ac)L[Aib]VK(X2)L-NH2) as the compound, how does the “cellular uptake (intracellular fluorescence)” value (HeLa cells) read?
Answer: did not yield cellular fluorescent pattern
